PubChem BioAssay (NCI)
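Five concentrations, 48 hours, 96-well plates. Abbreviation: GI50, concentration required for 50% inhibition of growth. The concentration for full growth arrest is given as TGI.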

Columns and labels:
Assay in all cases: inhibition of tumour cell growth, NCI panel, 48 h
[1] = tested on: NCI-H522 lung
[2] = tested on: OVCAR-5 ovarian
[3] = tested on: SR leukemia
[4] = tested on: UACC-62 melanoma
[5] = tested on: OVCAR-3 ovarian
[6] = tested on: SF-295 CNS
[7] = tested on: SN12C renal
[8] = tested on: SK-MEL-2 melanoma
[9] = tested on: MALME-3M melanoma
[10] = tested on: EKVX NSCLC
[11] = tested on: SF-268 CNS
[12] = tested on: TK-10 renal
[13] = tested on: SNB-19 CNS
[14] = tested on: OVCAR-8 ovarian
[15] = tested on: CAKI-1 renal
[16] = tested on: HOP-18 NSCLC
[17] = tested on: COLO 205 colon
[18] = tested on: UO-31 renal
[19] = tested on: A549 NSCLC
[20] = tested on: U251 CNS
[21] = tested on: M14 melanoma
[22] = tested on: KM12 colon
[23] = tested on: SNB-75 CNS
[24] = tested on: KM20L2 colon
[25] = tested on: DMS 273 small cell lung
[26] = tested on: IGROV1 ovarian
[27] = tested on: NCI-H226 lung
[28] = tested on: XF 498 CNS
[29] = tested on: DLD-1 colon
[30] = tested on: LXFL 529 NSCLC
[31] = tested on: NCI-H460 lung
[32] = tested on: RPMI-8226 leukemia
[33] = tested on: OVCAR-4 ovarian
[34] = tested on: SK-MEL-28 melanoma
[35] = tested on: HCT-116 colon
[36] = tested on: HCT-15 colon
[37] = tested on: LOX IMVI melanoma
[38] = tested on: HCC-2998 colon
[39] = tested on: NCI-H23 lung
[40] = tested on: 786-0 renal
[41] = tested on: M19-MEL melanoma
[42] = tested on: SF-539 CNS
[43] = tested on: SK-MEL-5 melanoma
[44] = tested on: RXF 393 renal
[45] = tested on: RXF-631 renal
[46] = tested on: SW-620 colon
[47] = tested on: DMS 114 small cell lung
[48] = tested on: HT29 colon
[49] = tested on: HL-60(TB) leukemia
[50] = tested on: K-562 leukemia
[51] = tested on: HOP-62 NSCLC
[52] = tested on: ACHN renal
[53] = tested on: A498 renal
[54] = tested on: MOLT-4 leukemia
[55] = tested on: CCRF-CEM leukemia
[56] = tested on: SNB-78 CNS
[57] = tested on: HOP-92 NSCLC
[58] = tested on: UACC-257 melanoma
[59] = tested on: SK-OV-3 ovarian

CC(C)(C)N=Cc1ccccc1[O-].CC(C)(C)N=Cc1ccccc1[O-].[Co+2]
GI50 [1]: 30.3 µM
TGI [1]: > 100 µM
GI50 [2]: 3.31 µM
TGI [2]: > 100 µM
GI50 [3]: 6.3 µM
TGI [3]: > 100 µM
GI50 [4]: 12.1 µM
TGI [4]: > 100 µM
GI50 [5]: 17.4 µM
TGI [5]: > 100 µM
GI50 [6]: > 100 µM
TGI [6]: > 100 µM
GI50 [7]: > 100 µM
TGI [7]: > 100 µM
GI50 [8]: > 100 µM
TGI [8]: > 100 µM
GI50 [9]: 93.5 µM
TGI [9]: > 100 µM
GI50 [10]: 60.7 µM
TGI [10]: > 100 µM
GI50 [11]: 60.7 µM
TGI [11]: > 100 µM
GI50 [12]: 44.5 µM
TGI [12]: > 100 µM
GI50 [13]: > 100 µM
TGI [13]: > 100 µM
GI50 [14]: 76.7 µM
TGI [14]: > 100 µM
GI50 [15]: 59.3 µM
TGI [15]: > 100 µM
GI50 [16]: 7.08 µM
TGI [16]: 83 µM
GI50 [17]: 45.3 µM
TGI [17]: > 100 µM
GI50 [18]: 18.8 µM
TGI [18]: > 100 µM
GI50 [19]: > 100 µM
TGI [19]: > 100 µM
GI50 [20]: 58.2 µM
TGI [20]: > 100 µM
GI50 [21]: 30.2 µM
TGI [21]: > 100 µM
GI50 [22]: > 100 µM
TGI [22]: > 100 µM
GI50 [23]: > 100 µM
TGI [23]: > 100 µM
GI50 [24]: 72.8 µM
TGI [24]: > 100 µM
GI50 [25]: 37.2 µM
TGI [25]: > 100 µM
GI50 [26]: 22.8 µM
TGI [26]: > 100 µM
GI50 [27]: 21.9 µM
TGI [27]: > 100 µM
GI50 [28]: > 100 µM
TGI [28]: > 100 µM
GI50 [29]: 52.7 µM
TGI [29]: > 100 µM
GI50 [30]: 83.9 µM
TGI [30]: > 100 µM
GI50 [31]: > 100 µM
TGI [31]: > 100 µM
GI50 [32]: 18 µM
TGI [32]: > 100 µM
GI50 [33]: 56.5 µM
TGI [33]: > 100 µM
GI50 [34]: 55.8 µM
TGI [34]: > 100 µM
GI50 [35]: 80.4 µM
TGI [35]: > 100 µM
GI50 [36]: > 100 µM
TGI [36]: > 100 µM
GI50 [37]: > 100 µM
TGI [37]: > 100 µM
GI50 [38]: > 100 µM
TGI [38]: > 100 µM
GI50 [39]: 8.39 µM
TGI [39]: > 100 µM
GI50 [40]: 72.4 µM
TGI [40]: > 100 µM
GI50 [41]: 54.4 µM
TGI [41]: > 100 µM
GI50 [42]: > 100 µM
TGI [42]: > 100 µM
GI50 [43]: 89.4 µM
TGI [43]: > 100 µM
GI50 [44]: > 100 µM
TGI [44]: > 100 µM
GI50 [45]: 23.2 µM
TGI [45]: > 100 µM
GI50 [46]: 70.3 µM
TGI [46]: > 100 µM
GI50 [47]: 26.1 µM
TGI [47]: > 100 µM

CN1CC[C@]2(C)c3c(O)cccc3CC3CCCC1C32C (stereo not given in full)
TGI [48]: > 100 µM
TGI [1]: > 100 µM
TGI [2]: > 100 µM
TGI [3]: > 100 µM
TGI [4]: > 100 µM
TGI [49]: > 100 µM
TGI [50]: > 100 µM
TGI [5]: > 100 µM
TGI [6]: > 100 µM
TGI [7]: > 100 µM
TGI [8]: > 100 µM
TGI [9]: > 100 µM
TGI [10]: > 100 µM
TGI [11]: > 100 µM
TGI [12]: > 100 µM
TGI [13]: > 100 µM
TGI [14]: > 100 µM
TGI [15]: > 100 µM
TGI [16]: > 100 µM
TGI [51]: > 100 µM
TGI [17]: > 100 µM
TGI [18]: > 100 µM
TGI [19]: > 100 µM
TGI [20]: > 100 µM
TGI [21]: > 100 µM
TGI [22]: > 100 µM
TGI [52]: > 100 µM
TGI [23]: > 100 µM
TGI [24]: > 100 µM
TGI [53]: > 100 µM
TGI [26]: > 100 µM
TGI [27]: > 100 µM
TGI [28]: > 100 µM
TGI [54]: > 100 µM
TGI [29]: > 100 µM
TGI [30]: > 100 µM
TGI [31]: > 100 µM
TGI [55]: > 100 µM
TGI [32]: > 100 µM
TGI [56]: > 100 µM
TGI [57]: > 100 µM
TGI [58]: > 100 µM
TGI [34]: > 100 µM
TGI [35]: > 100 µM
TGI [36]: > 100 µM
TGI [37]: > 100 µM
TGI [38]: 72.7 µM
TGI [39]: > 100 µM
TGI [40]: > 100 µM
TGI [59]: > 100 µM
TGI [41]: > 100 µM
TGI [42]: > 100 µM
TGI [43]: > 100 µM
TGI [44]: > 100 µM
TGI [45]: > 100 µM
TGI [47]: > 100 µM
